Results reported in patent US7138361B2, “Herbicidal heterocycles” (E. I. du Pont de Nemours and Company, priority 2000, dated 2006).

Experiments:
Format in all cases: in vivo
[1] = system: Surinam grass (Brachiaria decumbens); test: Test B postemergence
In short: (§1)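 Greenhouse test: chemicals are formulated in a surfactant-containing non-phytotoxic solvent and applied either preemergence to planted seeds or postemergence to plants 2 to 18 cm tall. Response is rated visually versus controls after 13 to 15 days, 0 meaning no effect and 100 complete control.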

[2] = system: barnyardgrass (Echinochloa crus-galli); test: Test B postemergence
In short: as §1

[3] = system: corn (Zea mays); test: Test B postemergence
In short: as §1

[4] = system: lambsquarters (Chenopodium album); test: Test B postemergence
In short: as §1

[5] = system: morning glory (Ipomoea hederacea); test: Test B postemergence
In short: as §1

[6] = system: velvetleaf (Abutilon theophrasti); test: Test B postemergence
In short: as §1

[7] = system: Nightshade; test: Test C preemergence
[8] = system: Surinam grass (Brachiaria decumbens); test: Test C preemergence; conditions: for Plant response rating (0 to 100), Surinam grass: Rate 500 g/ha, visual evaluation after 12 to 14 days
In short: (§2)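 Response scores (0 no effect to 100 complete control) came from visual comparison with untreated controls 12 to 14 days after treatment. Preemergence application was made to seeded soil; postemergence, to plants at the 1- to 4-leaf stage.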

[9] = system: cocklebur (Xanthium strumarium); test: Test C preemergence; conditions: for Plant response rating (0 to 100), Cocklebur: Rate 500 g/ha, visual evaluation after 12 to 14 days
In short: as §2

[10] = system: common ragweed (Ambrosia elatior); test: Test C preemergence; conditions: for Plant response rating (0 to 100), Ragweed, Common: Rate 500 g/ha, visual evaluation after 12 to 14 days
In short: as §2

[11] = system: corn (Zea mays); test: Test C preemergence; conditions: for Plant response rating (0 to 100), Corn: Rate 500 g/ha, visual evaluation after 12 to 14 days
In short: as §2

[12] = system: crabgrass (Digitaria sanguinalis); test: Test C preemergence; conditions: for Plant response rating (0 to 100), Crabgrass: Rate 500 g/ha, visual evaluation after 12 to 14 days
In short: as §2

[13] = system: goosegrass (Eleusine indica); test: Test C preemergence; conditions: for Plant response rating (0 to 100), Goosegrass: Rate 500 g/ha, visual evaluation after 12 to 14 days
In short: as §2

[14] = system: johnsongrass (Sorghum halepense); test: Test C preemergence; conditions: for Plant response rating (0 to 100), Johnsongrass: Rate 500 g/ha, visual evaluation after 12 to 14 days
In short: as §2

[15] = system: kochia (Kochia scoparia); test: Test C preemergence; conditions: for Plant response rating (0 to 100), Kochia: Rate 500 g/ha, visual evaluation after 12 to 14 days
In short: as §2

[16] = system: lambsquarters (Chenopodium album); test: Test C preemergence; conditions: for Plant response rating (0 to 100), Lambsquarters: Rate 500 g/ha, visual evaluation after 12 to 14 days
In short: as §2

[17] = system: morningglory (Ipomoea hederacea); test: Test C preemergence
In short: as §2

[18] = system: soybean (Glycine max); test: Test C preemergence; conditions: for Plant response rating (0 to 100), Soybean: Rate 500 g/ha, visual evaluation after 12 to 14 days
In short: as §2

[19] = system: velvetleaf (Abutilon theophrasti); test: Test C preemergence; conditions: for Plant response rating (0 to 100), Velvetleaf: Rate 500 g/ha, visual evaluation after 12 to 14 days
In short: as §2

[20] = system: woolly cupgrass (Eriochloa villosa); test: Test C preemergence; conditions: for Plant response rating (0 to 100), Cupgrass, Woolly: Rate 500 g/ha, visual evaluation after 12 to 14 days
In short: as §2

[21] = Rate 125 g/ha, scale 0 to 100, 0 no effect, 100 complete control
[22] = Rate 500 g/ha, scale 0 (no effect) to 100 (complete control), 13 to 15 days
[23] = Rate 250 g/ha, scale 0 to 100, 0 no effect, 100 complete control
[24] = preemergence, Rate 62 g/ha, scale 0 to 100
[25] = preemergence, Rate 250 g/ha, scale 0 to 100, 0 no effect, 100 complete control

CCC(CC)c1ccn(C2CCN(c3ccc(F)c(C(F)(F)F)c3)C2=O)n1 (stereo not drawn) [Compound 144]
100: Plant response rating, Lambsquarters [4, 21] | Plant response rating, Lambsquarters [4, 22] | Plant response rating, Nightshade ([7]; Rate 62 g/ha, scale 0 to 100) | Plant response rating, Nightshade [7, 21] | Plant response rating, Nightshade [7, 23] | Plant response rating, Crabgrass [12, 21] | Plant response rating, Crabgrass [12, 24] | Plant response rating (0 to 100), Crabgrass ([12]; preemergence) | Plant response rating, Crabgrass [12, 25] | Plant response rating, Goosegrass [13, 21] | Plant response rating, Goosegrass [13, 24] | Plant response rating (0 to 100), Goosegrass ([13]; preemergence) | Plant response rating, Goosegrass [13, 25] | Plant response rating (0 to 100), Johnsongrass ([14]; preemergence) | Plant response rating, Johnsongrass [14, 25] | Plant response rating, Kochia [15, 21] | Plant response rating (0 to 100), Kochia ([15]; preemergence) | Plant response rating, Kochia [15, 25] | Plant response rating, Lambsquarters [16, 21] | Plant response rating, Lambsquarters [16, 24] | Plant response rating (0 to 100), Lambsquarters ([16]; preemergence) | Plant response rating, Lambsquarters [16, 25] | Plant response rating, Cupgrass, Woolly [20, 21] | Plant response rating, Cupgrass, Woolly [20, 24] | Plant response rating (0 to 100), Cupgrass, Woolly ([20]; preemergence) | Plant response rating, Cupgrass, Woolly [20, 25]
0: Plant response rating, Surinam grass [1, 21] | Plant response rating, Surinam grass [1, 22] | Plant response rating, Barnyardgrass [2, 21] | Plant response rating, Barnyardgrass [2, 22] | Plant response rating, Corn [3, 21] | Plant response rating, Corn [3, 22] | Plant response rating, Morningglory [5, 21] | Plant response rating, Velvetleaf [6, 21] | Plant response rating, Velvetleaf [6, 22] | Plant response rating, Surinam grass [8, 21] | Plant response rating, Surinam grass [8, 24] | Plant response rating, Surinam grass [8, 25] | Plant response rating, Ragweed, Common [10, 21] | Plant response rating, Ragweed, Common [10, 24] | Plant response rating, Johnsongrass [14, 24] | Plant response rating, Morningglory [17, 21] | Plant response rating, Velvetleaf [19, 21] | Plant response rating, Velvetleaf [19, 24]
90: Plant response rating (0 to 100), Surinam grass ([8]; preemergence) | Plant response rating, Johnsongrass [14, 21] | Plant response rating, Kochia [15, 24]
70: Plant response rating (0 to 100), Soybean ([18]; preemergence) | Plant response rating, Soybean [18, 25]
20: Plant response rating (0 to 100), Velvetleaf ([19]; preemergence) | Plant response rating, Velvetleaf [19, 25]
50: Plant response rating, Cocklebur [9, 24] | Plant response rating (0 to 100), Ragweed, Common ([10]; preemergence) | Plant response rating, Corn [11, 21] | Plant response rating, Corn [11, 25] | Plant response rating, Soybean [18, 21] | Plant response rating, Soybean [18, 24]
30: Plant response rating, Morningglory [5, 22] | Plant response rating, Ragweed, Common [10, 25] | Plant response rating, Corn [11, 24] | Plant response rating (0 to 100), Morningglory ([17]; preemergence, Rate 500 g/ha, visual evaluation after 12 to 14 days) | Plant response rating, Morningglory [17, 25]
60: Plant response rating, Cocklebur [9, 21] | Plant response rating (0 to 100), Cocklebur ([9]; preemergence) | Plant response rating, Cocklebur [9, 25] | Plant response rating (0 to 100), Corn ([11]; preemergence)

CCC(C)c1ccn(C2CCN(c3ccc(F)c(C(F)(F)F)c3)C2=O)n1 (stereo not drawn) [Compound 145]
50: Plant response rating, Surinam grass [8, 21] | Plant response rating, Cocklebur [9, 25]
20: Plant response rating, Nightshade [7, 23] | Plant response rating, Cocklebur [9, 21] | Plant response rating (0 to 100), Ragweed, Common ([10]; preemergence) | Plant response rating, Corn [11, 21] | Plant response rating, Johnsongrass [14, 25] | Plant response rating, Soybean [18, 24] | Plant response rating (0 to 100), Velvetleaf ([19]; preemergence) | Plant response rating, Cupgrass, Woolly [20, 24]
90: Plant response rating, Barnyardgrass [2, 22] | Plant response rating, Surinam grass [8, 25] | Plant response rating, Goosegrass [13, 24] | Plant response rating (0 to 100), Johnsongrass ([14]; preemergence)
100: Plant response rating, Lambsquarters [4, 22] | Plant response rating (0 to 100), Surinam grass ([8]; preemergence) | Plant response rating, Crabgrass [12, 21] | Plant response rating, Crabgrass [12, 24] | Plant response rating (0 to 100), Crabgrass ([12]; preemergence) | Plant response rating, Crabgrass [12, 25] | Plant response rating, Goosegrass [13, 21] | Plant response rating (0 to 100), Goosegrass ([13]; preemergence) | Plant response rating, Goosegrass [13, 25] | Plant response rating, Kochia [15, 21] | Plant response rating, Kochia [15, 24] | Plant response rating (0 to 100), Kochia ([15]; preemergence) | Plant response rating, Kochia [15, 25] | Plant response rating, Lambsquarters [16, 21] | Plant response rating, Lambsquarters [16, 24] | Plant response rating (0 to 100), Lambsquarters ([16]; preemergence) | Plant response rating, Lambsquarters [16, 25] | Plant response rating, Morningglory [17, 21] | Plant response rating, Morningglory [17, 25] | Plant response rating, Cupgrass, Woolly [20, 21] | Plant response rating (0 to 100), Cupgrass, Woolly ([20]; preemergence) | Plant response rating, Cupgrass, Woolly [20, 25]
30: Plant response rating, Velvetleaf [6, 22] | Plant response rating, Soybean [18, 21] | Plant response rating, Soybean [18, 25]
80: Plant response rating, Lambsquarters [4, 21]
40: Plant response rating (0 to 100), Corn ([11]; preemergence) | Plant response rating, Corn [11, 25]
0: Plant response rating, Surinam grass [1, 21] | Plant response rating, Surinam grass [1, 22] | Plant response rating, Barnyardgrass [2, 21] | Plant response rating, Corn [3, 21] | Plant response rating, Corn [3, 22] | Plant response rating, Morningglory [5, 21] | Plant response rating, Morningglory [5, 22] | Plant response rating, Velvetleaf [6, 21] | Plant response rating, Nightshade ([7]; Rate 62 g/ha, scale 0 to 100) | Plant response rating, Surinam grass [8, 24] | Plant response rating, Cocklebur [9, 24] | Plant response rating, Ragweed, Common [10, 21] | Plant response rating, Ragweed, Common [10, 24] | Plant response rating, Ragweed, Common [10, 25] | Plant response rating, Corn [11, 24] | Plant response rating, Johnsongrass [14, 24] | Plant response rating, Morningglory [17, 24] | Plant response rating, Velvetleaf [19, 21] | Plant response rating, Velvetleaf [19, 24] | Plant response rating, Velvetleaf [19, 25]
10: Plant response rating, Nightshade [7, 21] | Plant response rating, Johnsongrass [14, 21]
60: Plant response rating (0 to 100), Cocklebur ([9]; preemergence) | Plant response rating (0 to 100), Soybean ([18]; preemergence)
